Patent publication US7005453B1, “Use of hop acids to inhibit growth of Staphylococcus aureus and prevent toxic shock syndrome” (Miller Brewing Company, priority 1999, dated 2006)

How the values were obtained:
Lactobacillus species = assay: MIC assay using Lactobacillus species (vaginal isolates) in MRS broth, growth scored by turbidity; assay type: cell-based; details: for growth (turbidity score): MRS at pH 6.3, anaerobic 28° C., five days; for concentration as high as which Lactobacillus exhibited strong growth: Lactobacillus species tested
Procedure: (§1) Minimal inhibitory concentration (MIC) assays of several hop compounds were conducted using a Staphylococcus aureus species and vaginal isolates Lactobacillus vaginalias, Lactobacillus crispatus, Lactobacillus gasseri, and Lactobacillus jensenii as test microorganisms. Lactobacillus assays were conducted in Lactobacillus MRS broth (Difco) tubes. A 0.1 ml aliquot of a 1% (w/w) solution of each hop acid in alcohol was added to a tube of sterile MRS broth to give a final concentration of 100 ppm of the hop. This solution was serially diluted in tubes with sterile MRS broth using a two-fold dilution series. A second dilution series prepared as above, but using 0.1 ml alcohol without hop acid, was used as a positive control of bacterial growth. Each tube was inoculated with a fresh culture (10^4 cells) of a Lactobacillus species in MRS broth. The cultures were incubated anaerobically in a CO2 incubator at 28° C. for five days. Growth was evaluated by visually assessing and scoring development of turbidity in the tube of broth.

Staphylococcus aureus = assay: MIC assay using Staphylococcus aureus in trypticase soy broth, growth scored by turbidity; assay type: cell-based; details: for growth (turbidity score): aerobic 37° C., three days; for minimum inhibitory concentration: S. aureus at pH 6.0
Procedure: as §1
The MIC assays for Staphylococcus aureus were conducted in Difco trypticase soy broth (TSB) using the same serial dilution technique and the inoculum level as described above. The pH of the TSB was adjusted to pH7.0, pH 6.0, or pH5.0 using hydrochloric acid. The tubes were incubated aerobically at 37° C. for three days and growth was evaluated by visually assessing and scored the development of turbidity in the broth.

hexahydro beta acids
growth (turbidity score) (Lactobacillus species; 0.2 ppm): +++ Growth
growth (turbidity score) (Lactobacillus species; 0.39 ppm): +++ Growth
growth (turbidity score) (Lactobacillus species; 0.78 ppm): +++ Growth
growth (turbidity score) (Lactobacillus species; 1.56 ppm): +++ Growth
growth (turbidity score) (Lactobacillus species; 3.125 ppm): +++ Growth
growth (turbidity score) (Lactobacillus species; 6.25 ppm): +++ Growth
growth (turbidity score) (Lactobacillus species; 12.5 ppm): +++ Growth
growth (turbidity score) (Lactobacillus species; 25 ppm): +/− Growth
growth (turbidity score) (Lactobacillus species; 50 ppm): No growth
growth (turbidity score) (Lactobacillus species; 100 ppm): No growth
concentration as high as which Lactobacillus exhibited strong growth (Lactobacillus species): 12.5 ppm
growth (turbidity score) (Staphylococcus aureus; 0.2 ppm, TSB at pH 5.0): No growth
growth (turbidity score) (Staphylococcus aureus; 0.2 ppm, TSB at pH 6.0): + Growth
growth (turbidity score) (Staphylococcus aureus; 0.2 ppm, TSB at pH 7.0): +++ Growth
growth (turbidity score) (Staphylococcus aureus; 0.39 ppm, TSB at pH 5.0): No growth
growth (turbidity score) (Staphylococcus aureus; 0.39 ppm, TSB at pH 6.0): No growth
growth (turbidity score) (Staphylococcus aureus; 0.39 ppm, TSB at pH 7.0): ++ Growth
growth (turbidity score) (Staphylococcus aureus; 0.78 ppm, TSB at pH 5.0): No growth
growth (turbidity score) (Staphylococcus aureus; 0.78 ppm, TSB at pH 6.0): No growth
growth (turbidity score) (Staphylococcus aureus; 0.78 ppm, TSB at pH 7.0): + Growth
growth (turbidity score) (Staphylococcus aureus; 1.56 ppm, TSB at pH 5.0): No growth
growth (turbidity score) (Staphylococcus aureus; 1.56 ppm, TSB at pH 6.0): No growth
growth (turbidity score) (Staphylococcus aureus; 1.56 ppm, TSB at pH 7.0): +/− Growth
growth (turbidity score) (Staphylococcus aureus; 3.125 ppm, TSB at pH 5.0): No growth
growth (turbidity score) (Staphylococcus aureus; 3.125 ppm, TSB at pH 6.0): No growth
growth (turbidity score) (Staphylococcus aureus; 3.125 ppm, TSB at pH 7.0): No growth
growth (turbidity score) (Staphylococcus aureus; 6.25 ppm, TSB at pH 5.0): No growth
growth (turbidity score) (Staphylococcus aureus; 6.25 ppm, TSB at pH 6.0): No growth
growth (turbidity score) (Staphylococcus aureus; 6.25 ppm, TSB at pH 7.0): No growth
growth (turbidity score) (Staphylococcus aureus; 12.5 ppm, TSB at pH 5.0): No growth
growth (turbidity score) (Staphylococcus aureus; 12.5 ppm, TSB at pH 6.0): No growth
growth (turbidity score) (Staphylococcus aureus; 12.5 ppm, TSB at pH 7.0): No growth
growth (turbidity score) (Staphylococcus aureus; 25 ppm, TSB at pH 5.0): No growth
growth (turbidity score) (Staphylococcus aureus; 25 ppm, TSB at pH 6.0): No growth
growth (turbidity score) (Staphylococcus aureus; 25 ppm, TSB at pH 7.0): No growth
growth (turbidity score) (Staphylococcus aureus; 50 ppm, TSB at pH 5.0): No growth
growth (turbidity score) (Staphylococcus aureus; 50 ppm, TSB at pH 6.0): No growth
growth (turbidity score) (Staphylococcus aureus; 50 ppm, TSB at pH 7.0): No growth
growth (turbidity score) (Staphylococcus aureus; 100 ppm, TSB at pH 5.0): No growth
growth (turbidity score) (Staphylococcus aureus; 100 ppm, TSB at pH 6.0): No growth
growth (turbidity score) (Staphylococcus aureus; 100 ppm, TSB at pH 7.0): No growth
concentration as low as which S. aureus showed no to very weak growth (Staphylococcus aureus): 1.56 ppm
minimum inhibitory concentration (Staphylococcus aureus): 0.78 ppm

tetrahydroiso alpha acids
growth (turbidity score) (Lactobacillus species; 0.2 ppm): +++ Growth
growth (turbidity score) (Lactobacillus species; 0.39 ppm): +++ Growth
growth (turbidity score) (Lactobacillus species; 0.78 ppm): +++ Growth
growth (turbidity score) (Lactobacillus species; 1.56 ppm): +++ Growth
growth (turbidity score) (Lactobacillus species; 3.125 ppm): +++ Growth
growth (turbidity score) (Lactobacillus species; 6.25 ppm): +++ Growth
growth (turbidity score) (Lactobacillus species; 12.5 ppm): ++ Growth
growth (turbidity score) (Lactobacillus species; 25 ppm): +/− Growth
growth (turbidity score) (Lactobacillus species; 50 ppm): No growth
growth (turbidity score) (Lactobacillus species; 100 ppm): No growth
concentration as high as which Lactobacillus exhibited strong growth (Lactobacillus species): 12.5 ppm
growth (turbidity score) (Staphylococcus aureus; 0.2 ppm, TSB at pH 5.0): No growth
growth (turbidity score) (Staphylococcus aureus; 0.2 ppm, TSB at pH 6.0): ++ Growth
growth (turbidity score) (Staphylococcus aureus; 0.2 ppm, TSB at pH 7.0): +++ Growth
growth (turbidity score) (Staphylococcus aureus; 0.39 ppm, TSB at pH 5.0): No growth
growth (turbidity score) (Staphylococcus aureus; 0.39 ppm, TSB at pH 6.0): +/− Growth
growth (turbidity score) (Staphylococcus aureus; 0.39 ppm, TSB at pH 7.0): ++ Growth
growth (turbidity score) (Staphylococcus aureus; 0.78 ppm, TSB at pH 5.0): No growth
growth (turbidity score) (Staphylococcus aureus; 0.78 ppm, TSB at pH 6.0): No growth
growth (turbidity score) (Staphylococcus aureus; 0.78 ppm, TSB at pH 7.0): + Growth
growth (turbidity score) (Staphylococcus aureus; 1.56 ppm, TSB at pH 5.0): No growth
growth (turbidity score) (Staphylococcus aureus; 1.56 ppm, TSB at pH 6.0): No growth
growth (turbidity score) (Staphylococcus aureus; 1.56 ppm, TSB at pH 7.0): +/− Growth
growth (turbidity score) (Staphylococcus aureus; 3.125 ppm, TSB at pH 5.0): No growth
growth (turbidity score) (Staphylococcus aureus; 3.125 ppm, TSB at pH 6.0): No growth
growth (turbidity score) (Staphylococcus aureus; 3.125 ppm, TSB at pH 7.0): No growth
growth (turbidity score) (Staphylococcus aureus; 6.25 ppm, TSB at pH 5.0): No growth
growth (turbidity score) (Staphylococcus aureus; 6.25 ppm, TSB at pH 6.0): No growth
growth (turbidity score) (Staphylococcus aureus; 6.25 ppm, TSB at pH 7.0): No growth
growth (turbidity score) (Staphylococcus aureus; 12.5 ppm, TSB at pH 5.0): No growth
growth (turbidity score) (Staphylococcus aureus; 12.5 ppm, TSB at pH 6.0): No growth
growth (turbidity score) (Staphylococcus aureus; 12.5 ppm, TSB at pH 7.0): No growth
growth (turbidity score) (Staphylococcus aureus; 25 ppm, TSB at pH 5.0): No growth
growth (turbidity score) (Staphylococcus aureus; 25 ppm, TSB at pH 6.0): No growth
growth (turbidity score) (Staphylococcus aureus; 25 ppm, TSB at pH 7.0): No growth
growth (turbidity score) (Staphylococcus aureus; 50 ppm, TSB at pH 5.0): No growth
growth (turbidity score) (Staphylococcus aureus; 50 ppm, TSB at pH 6.0): No growth
growth (turbidity score) (Staphylococcus aureus; 50 ppm, TSB at pH 7.0): No growth
growth (turbidity score) (Staphylococcus aureus; 100 ppm, TSB at pH 5.0): No growth
growth (turbidity score) (Staphylococcus aureus; 100 ppm, TSB at pH 6.0): No growth
growth (turbidity score) (Staphylococcus aureus; 100 ppm, TSB at pH 7.0): No growth
concentration as low as which S. aureus showed no to very weak growth (Staphylococcus aureus): 1.56 ppm
minimum inhibitory concentration (Staphylococcus aureus): 0.78 ppm
